Test system: TGF-beta
Test: Elimination of TGF-beta-mediated growth inhibition in Mv1Lu cells (Crystal Violet staining)
Type: cell-based
Conditions: 48 h; lung epithelial cell line Mv1Lu, 1 ng/ml TGF-beta, 0.5% FCS, two days
Protocol: In-Vitro (Enzyme) Assay for Determination of the Efficacy of Inhibitors of the Inhibition of TGF-Beta-Mediated Effects
As an example, the ability of the inhibitors to eliminate TGF-beta-mediated growth inhibition is tested.
Cells of the lung epithelial cell line Mv1Lu are sown in a defined cell density in a 96-well microtitre plate and cultivated overnight under standard conditions. Next day, the medium is replaced by medium which comprises 0.5% of FCS and 1 ng/ml of TGF-beta, and the test sub-stances are added in defined concentrations, generally in the form of dilution series with 5-fold steps. The concentration of the solvent DMSO is constant at 0.5%. After a further two days, Crystal Violet staining of the cells is carried out. After extraction of the Crystal Violet from the fixed cells, the absorption is measured spectrophotometrically at 550 nm. It can be used as a quantitative measure of the adherent cells present and thus of the cell proliferation during the culture.

Structure (SMILES)	IC50
COc1cccc(-c2nnc3n2-c2ccc(OC)cc2NCC3C)c1 (racemic) [Compound A6, (R,S)-8-Methoxy-1-(3-methoxyphenyl)-4-methyl-5,6-dihydro-4H-2,3,6,10b-tetraazabenzo[e]azulene]	3.9 µM
COc1cccc(-c2nnc3n2-c2ccc(Cl)cc2NCC3C)c1 (racemic) [Compound B1, (R,S)-8-Chloro-1-(3-methoxyphenyl)-4-methyl-5,6-dihydro-4H-2,3,6,10b-tetraazabenzo[e]azulene]	7 µM
COc1ccc2c(c1)NCC(C)c1nnc(-c3cc(Cl)ccc3F)n1-2 (racemic) [Compound A8, (R,S)-1-(5-Chloro-2-fluorophenyl)-8-methoxy-4-methyl-5,6-dihydro-4H-2,3,6,10b-tetraazabenzo[e]azulene]	6.6 µM
Cc1cccc(-c2nnc3n2-c2cc(NC(=O)C(C)(C)C)ccc2NCC3C)n1 (stereo not shown) [Compound A80, 2,2-Dimethyl-N-[4-methyl-1-(6-methylpyridin-2-yl)-5,6-dihydro-4H-2,3,6,10b-tetraazabenzo[e]azulen-9-yl]propionamide]	3.3 µM
Cc1cccc(-c2nnc3n2-c2ccc(Cl)cc2NC[C@@H]3C)n1 [Compound A4, (+)-(S)-8-Chloro-4-methyl-1-(6-methylpyridin-2-yl)-5,6-dihydro-4H-2,3,6,10b-tetraazabenzo[e]azulene]	3.8 µM
CC1CNc2cc(O)ccc2-n2c(-c3cc(Cl)ccc3F)nnc21 (racemic) [Compound A9, (R,S)-1-(5-Chloro-2-fluorophenyl)-4-methyl-5,6-dihydro-4H-2,3,6,10b-tetraazabenzo[e]azulene-8-ol]	0.91 µM
COc1ccc2c(c1)NCC(C)c1nnc(-c3cccc(C)n3)n1-2 (racemic) [Compound A5, (R,S)-8-Methoxy-4-methyl-1-(6-methylpyridin-2-yl)-5,6-dihydro-4H-2,3,6,10b-tetraazabenzo[e]azulene]	2.4 µM
Cc1cccc(-c2nnc3n2-c2ccc(O)cc2NC(C)C3)n1 (stereo not shown) [Compound A78, 5-Methyl-1-(6-methylpyridin-2-yl)-5,6-dihydro-4H-2,3,6,10b-tetraazabenzo[e]azulen-8-ol]	0.15 µM
CC1CNc2cc(O)ccc2-n2c(-c3cccc(Cl)c3)nnc21 (racemic) [Compound A2, (R,S)-1-(3-Chlorophenyl)-4-methyl-5,6-dihydro-4H-2,3,6,10b-tetraazabenzo[e]azulen-8-ol]	0.97 µM
Cc1cccc(-c2nnc3n2-c2ccc(O)cc2NCC3)n1 [Compound A7, 1-(6-Methylpyridin-2-yl)-5,6-dihydro-4H-2,3,6,10b-tetraazabenzo[e]azulen-8-ol]	2.2 µM
CCOc1cccc(-c2nnc3n2-c2ccc(Cl)cc2NCC3C)c1 (racemic) [Compound A10, (R,S)-8-Chloro-1-(3-ethoxyphenyl)-4-methyl-5,6-dihydro-4H-2,3,6,10b-tetraazabenzo[e]azulene]	5.7 µM
Cc1cccc(-c2nnc3n2-c2ccc(Cl)cc2NCC3C)n1 (racemic) [Compound A3, (R,S)-8-Chloro-4-methyl-1-(6-methylpyridin-2-yl)-5,6-dihydro-4H-2,3,6,10b-tetraazabenzo[e]azulene]	3.5 µM
Cc1cccc(-c2nnc3n2-c2ccc(O)cc2NCC3C)n1 (racemic) [Compound A1, (R,S)-8-hydroxy-4-methyl-1-(6-methylpyridin-2-yl)-5,6-dihydro-4H-2,3,6,10btetraazabenzo[e]azulene]	0.18 µM

— patent publication US8093240B2, “Triazole derivatives” (Merck Patent GmbH, priority 2005, dated 2012)
